Source: PubChem BioAssay AID330 (DTP/NCI, 2004)
Several values for one entry are separate records, joined by “and”; a condition that tells them apart may be missing. Identical values can stand only once. Inconclusive results and toxic doses are left out. How the source made its calls: active means survival T/C of 150% or more; inactive means T/C below 125% in these data. Square brackets hold non-standard residues; d marks the D form. Peptide text beside a SMILES is read from it. * marks the point of attachment. Cbz = O=C(OCc1ccccc1)*; Nva = CCC[CH](N)C(=O)O

System: P388 leukemia ip, CD2F1 mice, survival T/C
Experiment: NCI In Vivo Anticancer Drug Screen. Data for tumor model P388 Leukemia (intraperitoneal) in CD2F1 (CDF1) mice
Conditions: endpoint: median survival time, higher = longer survival
How it was run: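 Mice carrying the transplanted tumor received test compound or vehicle. Survival was recorded in each group, and the value is the treated-group measurement divided by that of the vehicle-treated control group.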

[1] = dose: 50.0 mg/kg/injection, schedule: Q01DX005 (ip), vehicle: Klucel (hydroxypropylcellulose) (HPC)
[2] = dose: 100.0 mg/kg/injection, schedule: Q01DX005 (ip), vehicle: Klucel (hydroxypropylcellulose) (HPC)
[3] = dose: 200.0 mg/kg/injection, schedule: Q01DX005 (ip), vehicle: Klucel (hydroxypropylcellulose) (HPC)
[4] = dose: 60.0 mg/kg/injection, schedule: Q01DX005 (ip), vehicle: saline with Tween-80
[5] = dose: 120.0 mg/kg/injection, schedule: Q01DX005 (ip), vehicle: saline with Tween-80
[6] = dose: 50.0 mg/kg/injection, schedule: Q01DX009 (ip), vehicle: saline with Tween-80
[7] = dose: 100.0 mg/kg/injection, schedule: Q01DX009 (ip), vehicle: saline with Tween-80
[8] = dose: 200.0 mg/kg/injection, schedule: Q01DX009 (ip), vehicle: saline with Tween-80
[9] = dose: 50.0 mg/kg/injection, schedule: Q01DX009 (ip), vehicle: saline
[10] = dose: 100.0 mg/kg/injection, schedule: Q01DX009 (ip), vehicle: saline
[11] = dose: 25.0 mg/kg/injection, schedule: Q01DX009 (ip), vehicle: Klucel (hydroxypropylcellulose) (HPC)
[12] = dose: 50.0 mg/kg/injection, schedule: Q01DX009 (ip), vehicle: Klucel (hydroxypropylcellulose) (HPC)
[13] = dose: 100.0 mg/kg/injection, schedule: Q01DX009 (ip), vehicle: Klucel (hydroxypropylcellulose) (HPC)
[14] = dose: 15.0 mg/kg/injection, schedule: Q01DX005 (ip), vehicle: saline with Tween-80
[15] = dose: 30.0 mg/kg/injection, schedule: Q01DX005 (ip), vehicle: saline with Tween-80
[16] = dose: 50.0 mg/kg/injection, schedule: Q01DX005 (ip), vehicle: saline
[17] = dose: 100.0 mg/kg/injection, schedule: Q01DX005 (ip), vehicle: saline
[18] = dose: 100.0 mg/kg/injection, schedule: Q04DX003 (ip), vehicle: saline with Tween-80

Measured: T/C

CCCC(NC(=O)OCc1ccccc1)C(=O)NC(CC(C)C)C(=O)O (centres undefined) (Cbz-[Nva]-Leu-OH; configuration not given here)
inactive: [1] 112 % of control | [2] 100 % of control | [3] 106 % of control

CCOC(=O)c1ccc(NC(=O)Oc2ccc3c(C)cc(=O)oc3c2)cc1
inactive: [4] 98 % of control | [5] 98 % of control | dose: 240.0 mg/kg/injection, schedule: Q01DX005 (ip), vehicle: saline with Tween-80 103 % of control

CCCCCCCCC#CC(=O)OC
inactive: [6] 97 % of control | [7] 92 % of control | [8] 97 % of control

Nc1ccc(S(=O)(=O)F)cc1Cl
inactive: [9] 100 % of control | [10] 97 % of control | dose: 200.0 mg/kg/injection, schedule: Q01DX009 (ip), vehicle: saline 111 % of control

COc1ccc2c(NCCNc3c4ccccc4nc4cc(OC)ccc34)c3ccccc3nc2c1
inactive: dose: 0.62 mg/kg/injection, schedule: Q01DX009 (ip), vehicle: other 90 % of control | dose: 1.25 mg/kg/injection, schedule: Q01DX009 (ip), vehicle: other 90 % of control | dose: 2.5 mg/kg/injection, schedule: Q01DX009 (ip), vehicle: other 96 % of control | dose: 5.0 mg/kg/injection, schedule: Q01DX009 (ip), vehicle: other 100 % of control | dose: 10.0 mg/kg/injection, schedule: Q01DX009 (ip), vehicle: other 106 % of control | dose: 20.0 mg/kg/injection, schedule: Q01DX009 (ip), vehicle: other 96 % of control

Cc1nnc(-n2cccc2)s1
inactive: dose: 12.5 mg/kg/injection, schedule: Q01DX009 (ip), vehicle: Klucel (hydroxypropylcellulose) (HPC) 105 % of control | [11] 104 % of control and 95 % of control | [12] 100 % of control and 106 % of control | [13] 100 % of control and 111 % of control

COc1ccc2c(c1)N=C(NNC1=Nc3cc(OC)ccc3SC1)CS2
inactive: [14] 113 % of control and 97 % of control | [15] 101 % of control and 102 % of control | [4] 100 % of control and 91 % of control

S=C(N\N=C/C(/C=C/c1ccccc1)=N\NC(=S)Nc1ccc(Br)cc1)Nc1ccc(Br)cc1
inactive: dose: 100.0 mg/kg/injection, schedule: Q04DX002 (ip), vehicle: Klucel (hydroxypropylcellulose) (HPC) 106 % of control | dose: 200.0 mg/kg/injection, schedule: Q04DX002 (ip), vehicle: Klucel (hydroxypropylcellulose) (HPC) 97 % of control | dose: 400.0 mg/kg/injection, schedule: Q04DX002 (ip), vehicle: Klucel (hydroxypropylcellulose) (HPC) 95 % of control

CC(Cc1cccc2ccccc12)C(N)=O (centres undefined)
inactive: [1] 100 % of control | [2] 99 % of control | [3] 99 % of control

CCC(C)C(N)C(=O)N1CCCC1C(=O)O (stereo not drawn) (H-Ile-Pro-OH; configuration not given here)
inactive: dose: 60.0 mg/kg/injection, schedule: Q01DX005 (ip), vehicle: saline 98 % of control | dose: 120.0 mg/kg/injection, schedule: Q01DX005 (ip), vehicle: saline 98 % of control | dose: 240.0 mg/kg/injection, schedule: Q01DX005 (ip), vehicle: saline 102 % of control

O=C(CCCCCCCCc1cccc2c1OCO2)c1c(O)cccc1O
inactive: dose: 2.0 mg/kg/injection, schedule: Q01DX009 (ip), vehicle: Klucel (hydroxypropylcellulose) (HPC) 103 % of control | dose: 4.0 mg/kg/injection, schedule: Q01DX009 (ip), vehicle: Klucel (hydroxypropylcellulose) (HPC) 95 % of control | dose: 8.0 mg/kg/injection, schedule: Q01DX009 (ip), vehicle: Klucel (hydroxypropylcellulose) (HPC) 109 % of control | dose: 16.0 mg/kg/injection, schedule: Q01DX009 (ip), vehicle: Klucel (hydroxypropylcellulose) (HPC) 105 % of control

CC(=O)Nc1cc(C)ccc1O
inactive: [7] 95 % of control | [8] 100 % of control | dose: 400.0 mg/kg/injection, schedule: Q01DX009 (ip), vehicle: saline with Tween-80 95 % of control

COC1CCC(NS(=O)(=O)c2ccc(N)cc2)[N-]N1.[Ag+] (centres undefined)
inactive: dose: 12.5 mg/kg/injection, schedule: Q01DX009 (ip), vehicle: saline 93 % of control | dose: 25.0 mg/kg/injection, schedule: Q01DX009 (ip), vehicle: saline 101 % of control | [9] 98 % of control and 109 % of control

NCCCN1CCCC1
inactive: [16] 95 % of control | [17] 105 % of control

CCOCCOC(=O)c1nc2c(N)nc(-c3ccccc3)nc2nc1N
inactive: dose: 15.0 mg/kg/injection, schedule: Q01DX009 (ip), vehicle: saline with Tween-80 98 % of control | dose: 30.0 mg/kg/injection, schedule: Q01DX009 (ip), vehicle: saline with Tween-80 98 % of control | dose: 60.0 mg/kg/injection, schedule: Q01DX009 (ip), vehicle: saline with Tween-80 91 % of control

Cc1nc(C)n2ncnc2c1C
inactive: dose: 100.0 mg/kg/injection, schedule: Q04DX003 (ip), vehicle: saline 93 % of control | dose: 200.0 mg/kg/injection, schedule: Q04DX003 (ip), vehicle: saline 102 % of control | dose: 400.0 mg/kg/injection, schedule: Q04DX003 (ip), vehicle: saline 95 % of control

O=C(O)/C(Cl)=C(\Cl)C(=O)Nc1ccc(Br)cc1
inactive: [14] 102 % of control | [15] 102 % of control | [4] 99 % of control and 111 % of control | [5] 104 % of control

O=C(O)C(O)C(O)C1[O][Sb]([c]2ccc([N+](=O)[O-])cc2)[O]C1CO (centres undefined)
inactive: [16] 98 % of control | [17] 107 % of control | dose: 200.0 mg/kg/injection, schedule: Q01DX005 (ip), vehicle: saline 118 % of control

NCCCNC(=O)c1ccccc1N
inactive: [1] 100 % of control | [2] 100 % of control | [3] 100 % of control

NNC(=O)CCc1ccccc1Br
inactive: [6] 100 % of control and 90 % of control | dose: 50.0 mg/kg/injection, schedule: Q04DX003 (ip), vehicle: saline with Tween-80 104 % of control | [7] 100 % of control | [18] 90 % of control | [8] 95 % of control | dose: 200.0 mg/kg/injection, schedule: Q04DX003 (ip), vehicle: saline with Tween-80 90 % of control

Brc1cnc2ccccn12
inactive: [6] 101 % of control | [7] 102 % of control | [8] 114 % of control

COc1c(C(C)C)cc2c(c1OC)C13CCCC(C)(C)C1C(OC3=O)C2NC(=O)CCN(C)C (centres undefined)
inactive: [11] 97 % of control | [12] 98 % of control | [13] 90 % of control

Oc1c(-c2ccccc2)cc(-[n+]2c(-c3ccccc3)cc(-c3ccccc3)cc2-c2ccccc2)cc1-c1ccccc1
inactive: dose: 0.38 mg/kg/injection, schedule: Q01DX009 (ip), vehicle: saline with Tween-80 88 % of control | dose: 0.75 mg/kg/injection, schedule: Q01DX009 (ip), vehicle: saline with Tween-80 106 % of control | dose: 1.5 mg/kg/injection, schedule: Q01DX009 (ip), vehicle: saline with Tween-80 121 % of control | dose: 3.0 mg/kg/injection, schedule: Q01DX009 (ip), vehicle: saline with Tween-80 122 % of control

CCN(CCP(c1ccccc1)c1ccccc1)CCP(c1ccccc1)c1ccccc1
inactive: dose: 0.75 mg/kg/injection, schedule: Q04DX003 (ip), vehicle: saline with Tween-80 109 % of control | dose: 1.5 mg/kg/injection, schedule: Q04DX003 (ip), vehicle: saline with Tween-80 109 % of control | dose: 3.0 mg/kg/injection, schedule: Q04DX003 (ip), vehicle: saline with Tween-80 118 % of control | dose: 3.13 mg/kg/injection, schedule: Q04DX003 (ip), vehicle: saline with Tween-80 118 % of control | dose: 6.25 mg/kg/injection, schedule: Q04DX003 (ip), vehicle: saline with Tween-80 118 % of control | [18] 100 % of control and 87 % of control

ClCc1cnc[nH]1
inactive: [9] 116 % of control | [10] 111 % of control

CCCC1N=C(N)N=C(N)N1c1ccc(OC)cc1 (centres undefined)
inactive: dose: 12.5 mg/kg/injection, schedule: Q01DX005 (ip), vehicle: saline with Tween-80 100 % of control | dose: 25.0 mg/kg/injection, schedule: Q01DX005 (ip), vehicle: saline with Tween-80 103 % of control | dose: 50.0 mg/kg/injection, schedule: Q01DX005 (ip), vehicle: saline with Tween-80 101 % of control and 106 % of control
